The record followed here is patent publication US7713994B2 (Wyeth LLC, priority 2005, dated 2010).

Each structure is given as a SMILES string. Read-outs that look alike come from different tables or passages of the source.

The subject of test [1] is LoVo. Nature of the test: Cytotoxicity assay (SRB), LoVo. It is filed as cell-based. As to conditions: Homo sapiens, LoVo, 72 h, LoVo cells, SRB, read-out: In Vitro Cellular Activity IC50 LOVO. In short, it runs like this:
(§1)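 Plate cells, let them attach overnight, add compound dilutions in RPMI 1640/5% FBS, and incubate 3 days (BT474 6 days). Then fix with TCA, stain with SRB, dissolve the dye in Tris and read at 540 nm.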

Test [2] concerns BT474. Nature of the test: Cytotoxicity assay (SRB), BT474. The class given is cell-based. In a few lines: as §1
For test [3], the target named is T1, cyclin E/CDK2 enzyme (Homo sapiens, UniProt P24941).
T1 construct: made in house; host or cells: Sf9 insect cells, recombinant baculovirus
Nature of the test: CDK2 ELISA kinase assay (phospho-Rb ser 795 detection). The class given is biochemical. In a few lines:
(§2)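 Inhibition was derived from A450 relative to control wells lacking compound, following an anti-phospho-Rb Ser795 sandwich of HRP detection. The reactions combined coated GST-Rb fragment, 200 μM ATP and baculovirus-expressed cyclin/CDK enzymes, incubated for 1 h at 30° C.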

For test [4], the system named is HCT-116. Nature of the test: Cytotoxicity assay (SRB), HCT-116. As to conditions: Homo sapiens, HCT-116, 72 h, HCT116 cells, SRB, read-out: In Vitro Cellular Activity IC50 HCT116. It is filed as cell-based. In a few lines: as §1
Test [5] addresses T2, cyclin B/CDK1 enzyme (Homo sapiens, UniProt P06493).
T2 construct: purchased New England BioLabs; host or cells: Sf9 insect cells, recombinant baculovirus
Nature of the test: CDK1 ELISA kinase assay (phospho-Rb ser 795 detection). The class given is biochemical. In a few lines:
as §2
For orientation: An ELISA detects its analyte on a solid surface through an enzyme-linked reagent.

Test [6] has as its system MCF-7. Nature of the test: Cytotoxicity assay (SRB), MCF-7. The class given is cell-based. As to conditions: Homo sapiens, MCF7, 72 h, MCF-7 cells, SRB, read-out: In Vitro Cellular Activity IC50 MCF-7. In short, it runs like this: as §1
For test [7], the target named is T3, cyclin D1/cdk 4 enzyme (Homo sapiens, UniProt P11802).
T3 construct: made in house; host or cells: Sf9 insect cells, recombinant baculovirus
T3 sequence (P11802 whole entry, species assumed): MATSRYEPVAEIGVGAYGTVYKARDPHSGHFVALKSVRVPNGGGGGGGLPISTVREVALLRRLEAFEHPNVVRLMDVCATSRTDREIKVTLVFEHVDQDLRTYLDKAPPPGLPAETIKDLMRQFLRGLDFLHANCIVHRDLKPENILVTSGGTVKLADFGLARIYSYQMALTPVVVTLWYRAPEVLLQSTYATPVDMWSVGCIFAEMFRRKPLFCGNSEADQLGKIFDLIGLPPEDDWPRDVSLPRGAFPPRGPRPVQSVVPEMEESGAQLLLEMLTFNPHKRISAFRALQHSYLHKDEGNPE
T3 sequence (P24385 whole entry partner, species assumed): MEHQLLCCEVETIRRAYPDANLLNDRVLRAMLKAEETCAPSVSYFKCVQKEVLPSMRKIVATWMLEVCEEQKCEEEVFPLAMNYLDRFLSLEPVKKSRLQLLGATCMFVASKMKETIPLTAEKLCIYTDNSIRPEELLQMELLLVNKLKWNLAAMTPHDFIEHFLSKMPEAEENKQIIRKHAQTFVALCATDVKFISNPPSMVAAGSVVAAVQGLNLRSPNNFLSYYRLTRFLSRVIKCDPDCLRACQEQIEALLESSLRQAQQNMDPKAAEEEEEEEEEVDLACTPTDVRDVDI
Nature of the test: CDK4 ELISA kinase assay (phospho-Rb ser 795 detection). The class given is biochemical. In short, it runs like this: as §2

The mark [8] stands for this setting: Homo sapiens, BT-474, 144 h, BT474 cells, 6 days, SRB; read-out: In Vitro Cellular Activity IC50 BT474.
Where [9] appears, read: In Vitro Enzyme Assay, cyclin E/CDK2, read-out: CDK2 IC50.
Setting [10] is: In Vitro Enzyme Assay, cyclin B/CDK1, read-out: CDK1 IC50.
Where [11] appears, read: In Vitro Enzyme Assay, cyclin D1/cdk 4, read-out: CDK4 IC50.
[12] abbreviates: Homo sapiens, BT-474, 144 h, BT474 cells, SRB, 6 days; read-out: In Vitro Cellular Activity IC50 BT474.
The mark [13] stands for this setting: In Vitro Enzyme Assays, read-out: CDK2 IC50.
[14] abbreviates: In Vitro Enzyme Assays, read-out: CDK1 IC50.
The mark [15] stands for this setting: In Vitro Enzyme Assays, 200 μM ATP, read-out: CDK4 IC50.

T2 sequence (P06493 whole entry): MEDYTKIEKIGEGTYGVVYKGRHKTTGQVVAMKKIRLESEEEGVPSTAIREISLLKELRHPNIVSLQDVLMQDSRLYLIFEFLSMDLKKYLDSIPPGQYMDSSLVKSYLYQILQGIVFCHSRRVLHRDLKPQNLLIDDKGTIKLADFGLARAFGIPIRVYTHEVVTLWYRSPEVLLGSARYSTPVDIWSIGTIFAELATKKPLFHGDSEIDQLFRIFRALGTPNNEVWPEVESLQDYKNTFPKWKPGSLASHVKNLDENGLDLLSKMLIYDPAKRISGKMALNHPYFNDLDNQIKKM
T2 sequence (P14635 whole entry partner): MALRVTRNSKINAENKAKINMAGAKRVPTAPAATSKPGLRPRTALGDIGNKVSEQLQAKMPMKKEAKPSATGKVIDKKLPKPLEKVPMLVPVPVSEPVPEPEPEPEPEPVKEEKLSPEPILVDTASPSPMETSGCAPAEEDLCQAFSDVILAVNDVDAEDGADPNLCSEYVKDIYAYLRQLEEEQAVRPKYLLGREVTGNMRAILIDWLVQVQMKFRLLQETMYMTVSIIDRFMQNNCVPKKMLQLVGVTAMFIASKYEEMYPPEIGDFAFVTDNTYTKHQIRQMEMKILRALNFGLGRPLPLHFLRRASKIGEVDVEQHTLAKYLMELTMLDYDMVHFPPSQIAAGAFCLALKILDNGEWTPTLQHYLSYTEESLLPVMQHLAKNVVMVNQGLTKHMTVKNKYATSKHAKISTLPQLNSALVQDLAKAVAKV

By IC50 is commonly meant the concentration needed to halve the response being measured. As to `CN(CCN1CCCC1)c1ccc(N/C=C2\C(=O)NC(=O)c3ccc(Br)cc32)cc1` [Example 864, (4Z)-6-Bromo-4-[({4-[methyl(2-pyrrolidin-1-ylethyl)amino]phenyl}amino)methylene]isoquinoline-1,3(2H,4H)-dione], the IC50 in test [1] (3 days) is 3.8 µM; in test [2] (setting [8]), 7.9 µM; in test [3] (setting [9]) it was more than 50 µM; in test [4] (3 days), 3.1 µM; in test [5] (setting [10]) it was more than 50 µM; in test [6] (3 days), 3.6 µM. The IC50 in test [7] (setting [11]) turned out to be 2500 nM.
Turning to `COc1ccc(CN(C)/C=C2\C(=O)NC(=O)c3ccc(Br)cc32)cc1O` [Example 163, (4Z)-6-Bromo-4-{[(3-hydroxy-4-methoxybenzyl)(methyl)amino]methylene}isoquinoline-1,3(2H,4H)-dione], the concentration for half-maximal inhibition (IC50) is 34 µM in test [1] (three days); 38 µM in test [2] (setting [12]); 44.4 µM in test [3] (setting [13]); 38 µM in test [4] (three days); more than 50 µM in test [5] (setting [14]); 38 µM in test [6] (three days). Moreover, the IC50 in test [7] (setting [15]) is more than 50000 nM.
In the case of `CC(=O)Nc1cccc(-c2ccc3c(c2)C(=CNCc2ccc(O)c(O)c2)C(=O)NC3=O)c1` [Example 822, N-(3-{4-[(3,4-Dihydroxy-benzylamino)-methylene]-1,3-dioxo-1,2,3,4-tetrahydro-isoquinolin-6-yl}-phenyl)-acetamide], the concentration for half-maximal inhibition (IC50) came out at 47.9 µM in test [1] (3 days); 11 µM in test [2] (setting [8]); 18.9 µM in test [3] (setting [9]); 27.2 µM in test [4] (3 days); 46.5 µM in test [5] (setting [10]); 16.8 µM in test [6] (3 days). Further, the concentration for half-maximal inhibition (IC50) in test [7] (setting [11]) worked out at 150 nM.
For the molecule `O=C1NC(=O)c2ccc(-c3ccc(Cl)s3)cc2/C1=C/Nc1ccc(CN2CCC[C@H]2CO)cc1` [Example 441, 6-(5-Chloro-thiophen-2-yl)-4-{[4-(2-hydroxymethyl-pyrrolidin-1-ylmethyl)-phenylamino]-methylene}-4H-isoquinoline-1,3-dione], the IC50 in test [1] (3 days) is 2.9 µM; in test [2] (setting [8]) it was 3.2 µM; in test [3] (setting [13]), more than 50 µM; in test [4] (3 days), 1.1 µM; in test [5] (setting [14]), more than 50 µM; in test [6] (3 days) it was 2.3 µM. In addition, the IC50 in test [7] (setting [15]) turned out to be 140 nM.
With `CCN(CC)c1ccc2c(c1)C(=CNCc1ccc(O)c(O)c1)C(=O)NC2=O` [Example 608, 6-Diethylamino-4-[(3,4-dihydroxy-benzylamino)-methylene]-4H-isoquinoline-1,3-dione], the IC50 was found to be 10.4 µM in test [1] (3 days); 11.6 µM in test [2] (setting [8]); 6.7 µM in test [3] (setting [9]); 11.4 µM in test [4] (3 days); 18.9 µM in test [5] (setting [10]); 10.7 µM in test [6] (3 days). In addition, the half-inhibitory concentration (IC50) in test [7] (setting [11]) was 200 nM.
Turning to `NS(=O)(=O)c1ccc(CNC=C2C(=O)NC(=O)c3ccc(-c4cccc(F)c4)cc32)cc1` [Example 739, 4-({[6-(3-Fluoro-phenyl)-1,3-dioxo-2,3-dihydro-1H-isoquinolin-4-ylidenemethyl]-amino}-methyl)-benzenesulfonamide], the IC50 in test [1] (3 days) was more than 50 µM; in test [2] (setting [8]), 32.8 µM; in test [3] (setting [9]) it was more than 50 µM; in test [4] (3 days) it was 26.4 µM; in test [5] (setting [10]), 30.3 µM; in test [6] (3 days), 17.1 µM. Also, in test [7] (setting [11]), the half-inhibitory concentration (IC50) came to 1770 nM.
With `COc1ccc(CN/C=C2\C(=O)NC(=O)c3ccc(-c4ccsc4)cc32)cc1O` [Example 88, (4Z)-4-{[(3-Hydroxy-4-methoxybenzyl)amino]methylene}-6-thien-3-ylisoquinoline-1,3(2H,4H)-dione], the half-maximal inhibitory concentration (IC50) in test [1] (three days) is 2.4 µM; in test [2] (setting [12]), 6 µM; in test [3] (setting [13]) it was 18.3 µM; in test [4] (three days), 3.4 µM; in test [5] (setting [14]) it was 23.3 µM; in test [6] (three days), 9.1 µM. Moreover, the half-maximal inhibitory concentration (IC50) in test [7] (setting [15]) was determined as 2 nM.
